According to patent publication US20260250318A1, “COMPOSITIONS AND METHODS FOR CROSSING THE BLOOD BRAIN BARRIER” (VOYAGER THERAPEUTICS, INC., priority 2022, published 2026):

Columns and labels:
Details in all cases: synthetic library passage 3, intravenous, relative to wild-type AAV9
[1] = system: brain, spinal cord, and DRG of the NHPs; test: NGS fold enrichment of synthetic library (passage 3) in NHPs, first cross-species screen; format: in vivo, cynomolgus macaques (Macaca fascicularis)
Procedure, shortened: (§1)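 Passage-3 synthetic capsid library given intravenously […] to NHPs (2-4 years) and BALB/c or C57Bl/6 mice (n=3, 6-8 weeks). After e.g. 28 days, tissue RNA was RT-PCR amplified and NGS-sequenced; values are fold enrichment of each variant relative to wild-type AAV9.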

brain [2] = test: NGS fold enrichment of synthetic library (passage 3) in BALB/c mice, first cross-species screen; format: in vivo
Procedure, shortened: as §1

brain [3] = test: NGS fold enrichment of synthetic library (passage 3) in C57Bl/6 mice, first cross-species screen; format: in vivo
Procedure, shortened: as §1

[4] = RNA from spinal cord of NHPs, NGS
[5] = RNA from brain of BALB/c mice, NGS
[6] = RNA from brain of C57Bl/6 mice, NGS

Sequence | Fold enrichment over AAV9 in the brain of NHPs ([1]; RNA NGS, brain of NHPs) [fold] | Fold enrichment over AAV9 in the spinal cord of NHPs ([1]; RNA NGS, spinal cord of NHPs) [fold] | Fold enrichment over AAV9 in the brain of Mice (BALB/c) (brain [2]; RNA NGS, brain of BALB/c mice) [fold] | Fold enrichment over AAV9 in the brain of Mice (C57Bl/6) (brain [3]; RNA NGS, brain of C57Bl/6 mice) [fold] | Fold enrichment over AAV9 in the brain of NHPs ([1]; RNA from brain of NHPs, NGS) [fold] | Fold enrichment over AAV9 in the spinal cord of NHPs [1, 4] [fold] | Fold enrichment over AAV9 in the brain of Mice (BALB/c) (brain [2]; [5]) [fold] | Fold enrichment over AAV9 in the brain of Mice (C57Bl/6) (brain [3]; [6]) [fold]
GNGHSMRPNQNQQT | 1.560 | 2.341 | 0.376 | 0.693 | – | – | – | –
GNGLYAVSGQNQQT | 2.611 | 9.148 | 0.213 | 0.322 | – | – | – | –
GNGQNQQHSILHGT | 1.435 | 0.000 | 0.415 | 0.777 | – | – | – | –
GNIAGSVSGQNQQT | 2.849 | 1.187 | 0.257 | 0.446 | – | – | – | –
GNILHATSGQNQQT | 2.136 | 0.125 | 0.424 | 1.159 | – | – | – | –
GNIQWQGSGQNQQT | 2.468 | 6.266 | 0.837 | 1.182 | – | – | – | –
GNRDRPSSGQNQQT | – | – | – | – | 1.239 | 3.947 | 0.178 | 0.298
GNSMERTSGQNQQT | 2.221 | 4.177 | 0.935 | 1.047 | – | – | – | –
GNSQVKVSGQNQQT | – | – | – | – | 1.158 | 4.930 | 0.728 | 1.422
GNSSMMGSGQNQQT | – | – | – | – | 1.239 | 3.856 | 0.364 | 0.656
GNVTTQKSGQNQQT | 1.122 | 2.546 | 0.922 | 1.215 | – | – | – | –
GNYLHQASGQNQQT | 1.635 | 1.454 | 0.181 | 0.816 | – | – | – | –
GPAQHGTSGQNQQT | – | – | – | – | 1.407 | 0.866 | 0.615 | 1.030
GPASLPISGQNQQT | – | – | – | – | 1.386 | 9.008 | 0.155 | 0.312
GPDRIGSSGQNQQT | – | – | – | – | 1.308 | 0.426 | 0.342 | 0.654
GPFGMPSSGQNQQT | 2.260 | 2.700 | 0.560 | 0.727 | – | – | – | –

Sequence | Fold enrichment over AAV9 in the brain of NHPs ([1]; RNA NGS, brain of NHPs) [fold] | Fold enrichment over AAV9 in the spinal cord of NHPs ([1]; RNA NGS, spinal cord of NHPs) [fold] | Fold enrichment over AAV9 in the brain of Mice (BALB/c) (brain [2]; RNA NGS, brain of BALB/c mice) [fold] | Fold enrichment over AAV9 in the brain of Mice (C57Bl/6) (brain [3]; RNA NGS, brain of C57Bl/6 mice) [fold] | Fold enrichment over AAV9 in the brain of NHPs ([1]; RNA from brain of NHPs, NGS) [fold] | Fold enrichment over AAV9 in the spinal cord of NHPs [1, 4] [fold] | Fold enrichment over AAV9 in the brain of Mice (BALB/c) (brain [2]; [5]) [fold] | Fold enrichment over AAV9 in the brain of Mice (C57Bl/6) (brain [3]; [6]) [fold]
GPGLGSHSGQNQQT | 1.906 | 14.563 | 1.195 | 0.880 | – | – | – | –
GPGLPNHSGQNQQT | 2.486 | 1.992 | 0.659 | 1.197 | – | – | – | –
GPGLSGHSGQNQQT | 1.571 | 1.603 | 1.297 | 1.154 | – | – | – | –
GPGSAHSSGQNQQT | 1.785 | 4.392 | 0.872 | 1.099 | – | – | – | –
GPLVNASSGQNQQT | 1.434 | 5.239 | 0.343 | 0.831 | – | – | – | –
GPNSYPVSGQKQQT | – | – | – | – | 1.381 | 4.040 | 0.834 | 0.736
GPPQHMTSGQNQQT | 1.457 | 1.547 | 0.677 | 0.509 | – | – | – | –
GPRLSDQSGQNQQT | 1.511 | 0.364 | 0.579 | 0.640 | – | – | – | –
GPTNGRSSGQNQQT | 2.034 | 8.903 | 1.308 | 0.936 | – | – | – | –
GQIVQNPSGQNQQT | 3.133 | 0.406 | 0.635 | 1.446 | – | – | – | –
GQLGSVGSGQDQQT | – | – | – | – | 1.196 | 0.000 | 0.437 | 1.020
GQLVTFTSGQNQQT | – | – | – | – | 1.331 | 11.282 | 0.294 | 0.819
GRAPTNLSGQNQQT | 1.118 | 0.687 | 0.169 | 0.757 | – | – | – | –
GRAVMDHSGQNQQT | 2.408 | 3.209 | 0.283 | 0.728 | – | – | – | –
GREYGHKSGQNQQT | 3.453 | 0.000 | 0.959 | 1.422 | – | – | – | –
